Laboratory results from the NIST ThermoML archive (doi:10.1016/j.tca.2006.04.011).
± gives the expanded uncertainty stated by the source.

How the values were obtained:
[1] = DTA
[2] = Molar enthalpy of transition or fusion; conditions: DSC

Triple point temperature ([1]; Crystal 1) [K]	Molar enthalpy of transition or fusion ([2]; Crystal 1) [kcal/mol]	Triple point temperature ([1]; Crystal 2) [K]	Molar enthalpy of transition or fusion ([2]; Crystal 2) [kcal/mol]	Compound	Triple point temperature ([1]; Crystal 3) [K]	Molar enthalpy of transition or fusion ([2]; Crystal 3) [kcal/mol]
444.85 ± 3.2	6.15 ± 0.213	–	–	Clc1cc(Cl)c2cc(Cl)c(Cl)c(Cl)c2c1 [1,2,3,5,7-pentachloronaphthalene]	–	–
453.25 ± 3.2	2.02 ± 0.179	443.35 ± 3.2	0.22 ± 0.172	Clc1cc2c(Cl)ccc(Cl)c2c(Cl)c1Cl [1,2,3,5,8-pentachloronaphthalene]	387.75 ± 3.2	3.44 ± 0.189
449.35 ± 3.2	6.9 ± 0.22	–	–	Clc1cc(Cl)c2c(Cl)c(Cl)cc(Cl)c2c1Cl [1,2,4,5,6,8-hexachloronaphthalene]	–	–
412.65 ± 3.2	2.01 ± 0.179	404.15 ± 3.2	3.74 ± 0.191	Clc1cc(Cl)c2c(Cl)c(Cl)ccc2c1Cl [1,2,4,5,6-pentachloronaphthalene]	–	–
428.95 ± 3.2	4.72 ± 0.198	–	–	Clc1cc(Cl)c2c(Cl)c(Cl)cc(Cl)c2c1 [1,2,4,6,8-pentachloronaphthalene]	–	–
452.95 ± 3.2	6.49 ± 0.215	–	–	Clc1cc(Cl)c2cc(Cl)cc(Cl)c2c1 [1,3,5,7-tetrachloronaphthalene]	–	–
455.95 ± 3.2	2.09 ± 0.179	454.45 ± 3.2	2.04 ± 0.179	Clc1cc2c(Cl)c(Cl)c(Cl)c(Cl)c2c(Cl)c1Cl [naphthalene, 1,2,3,4,5,6,7-heptachloro-]	–	–
416.55 ± 3.2	5.48 ± 0.206	–	–	Clc1cc2cc(Cl)c(Cl)c(Cl)c2cc1Cl [naphthalene, 1,2,3,6,7-pentachloro-]	–	–
381.55 ± 3.2	4.19 ± 0.194	–	–	Clc1cc2ccc(Cl)c(Cl)c2c(Cl)c1Cl [naphthalene, 1,2,3,7,8-pentachloro-]	–	–
354.65 ± 3.2	4.41 ± 0.196	–	–	Clc1cc2ccccc2c(Cl)c1Cl [naphthalene, 1,2,3-trichloro-]	–	–
404.25 ± 3.2	5.4 ± 0.206	–	–	Clc1cc2c(Cl)cc(Cl)c(Cl)c2cc1Cl [naphthalene, 1,2,4,6,7-pentachloro-]	–	–
401.25 ± 3.2	3.49 ± 0.189	–	–	Clc1ccc2ccc(Cl)c(Cl)c2c1Cl [naphthalene, 1,2,7,8-tetrachloro-]	–	–

Compound	Triple point temperature ([1]; Crystal 1) [K]	Molar enthalpy of transition or fusion ([2]; Crystal 1) [kcal/mol]	Triple point temperature ([1]; Crystal 2) [K]	Molar enthalpy of transition or fusion ([2]; Crystal 2) [kcal/mol]	Triple point temperature ([1]; Crystal 3) [K]	Molar enthalpy of transition or fusion ([2]; Crystal 3) [kcal/mol]
Clc1c(Cl)c(Cl)c2ccccc2c1Cl [naphthalene, 1,2,3,4-tetrachloro-]	470.75 ± 3.2	2.76 ± 0.184	454.25 ± 3.2	0.318 ± 0.172	440.45 ± 3.2	2.52 ± 0.182
